Reference: ChEMBL document CHEMBL3994622, “Design and synthesis of new RAF kinase-inhibiting antiproliferative quinoline derivatives. Part 2: Diarylurea derivatives” (Eur J Med Chem, 2017)

How the values were obtained:
Assay type in all cases: functional
[1] = test system: DU-145; test: Growth inhibition of human DU145 cells assessed as cell growth at 0.03 uM incubated for 48 hrs by sulforhodamine B assay relative to control; settings: DU-145, 48 h, read-out: Activity
[2] = test system: M14; test: Growth inhibition of human M14 cells assessed as cell growth at 30 uM incubated for 48 hrs by sulforhodamine B assay relative to control; settings: M14, 48 h, read-out: Activity
[3] = test system: MDA-MB-231; test: Growth inhibition of human MDA-MB-231 cells assessed as cell growth at 0.03 uM incubated for 48 hrs by sulforhodamine B assay relative to control; settings: MDA-MB-231, 48 h, read-out: Activity
[4] = test system: Hs-578T; test: Growth inhibition of human Hs 578T cells assessed as cell growth at 0.003 uM incubated for 48 hrs by sulforhodamine B assay relative to control; settings: read-out: Activity
[5] = test system: PC-3; test: Growth inhibition of human PC3 cells assessed as cell growth at 0.003 uM incubated for 48 hrs by sulforhodamine B assay relative to control; settings: PC-3, 48 h, read-out: Activity
[6] = test system: SR; test: Growth inhibition of human SR cells assessed as cell growth at 30 uM incubated for 48 hrs by sulforhodamine B assay relative to control; settings: read-out: Activity
[7] = test system: M14; test: Growth inhibition of human M14 cells assessed as cell growth at 3 uM incubated for 48 hrs by sulforhodamine B assay relative to control; settings: M14, 48 h, read-out: Activity
[8] = test system: HCT-15; test: Growth inhibition of human HCT15 cells assessed as cell growth at 0.003 uM incubated for 48 hrs by sulforhodamine B assay relative to control; settings: HCT-15, 48 h, read-out: Activity
[9] = test system: HOP-92; test: Growth inhibition of human HOP92 cells assessed as cell growth at 30 uM incubated for 48 hrs by sulforhodamine B assay relative to control; settings: HOP-92, 48 h, read-out: Activity
[10] = test system: NCI/ADR-RES; test: Growth inhibition of human NCI/ADR-RES cells assessed as cell growth at 30 uM incubated for 48 hrs by sulforhodamine B assay relative to control; settings: read-out: Activity
[11] = test system: MDA-MB-435; test: Growth inhibition of human MDA-MB-435 cells assessed as cell growth at 3 uM incubated for 48 hrs by sulforhodamine B assay relative to control; settings: MDA-MB-435, 48 h, read-out: Activity
[12] = test system: NCI-H226; test: Growth inhibition of human NCI-H226 cells assessed as cell growth at 0.03 uM incubated for 48 hrs by sulforhodamine B assay relative to control; settings: NCI-H226, 48 h, read-out: Activity
[13] = test system: 786-0; test: Growth inhibition of human 786-0 cells assessed as cell growth at 30 uM incubated for 48 hrs by sulforhodamine B assay relative to control; settings: 786-0, 48 h, read-out: Activity
[14] = test system: IGROV-1; test: Growth inhibition of human IGROV1 cells assessed as cell growth at 3 uM incubated for 48 hrs by sulforhodamine B assay relative to control; settings: IGROV-1, 48 h, read-out: Activity
[15] = test system: SK-OV-3; test: Growth inhibition of human SKOV3 cells assessed as cell growth at 3 uM incubated for 48 hrs by sulforhodamine B assay relative to control; settings: SK-OV-3, 48 h, read-out: Activity
[16] = test system: PC-3; test: Growth inhibition of human PC3 cells assessed as cell growth at 0.03 uM incubated for 48 hrs by sulforhodamine B assay relative to control; settings: PC-3, 48 h, read-out: Activity
[17] = test system: T47D; test: Growth inhibition of human T47D cells assessed as cell growth at 0.003 uM incubated for 48 hrs by sulforhodamine B assay relative to control; settings: read-out: Activity
[18] = test system: NCI/ADR-RES; test: Growth inhibition of human NCI/ADR-RES cells assessed as cell growth at 0.3 uM incubated for 48 hrs by sulforhodamine B assay relative to control; settings: read-out: Activity
[19] = test system: COLO 205; test: Growth inhibition of human COLO205 cells assessed as cell growth at 30 uM incubated for 48 hrs by sulforhodamine B assay relative to control; settings: COLO 205, 48 h, read-out: Activity
[20] = test system: A549; test: Growth inhibition of human A549/ATCC cells assessed as cell growth at 0.01 uM incubated for 48 hrs by sulforhodamine B assay relative to control; settings: A549, 48 h, read-out: Activity
[21] = test system: EKVX; test: Growth inhibition of human EKVX cells assessed as cell growth at 0.1 uM incubated for 48 hrs by sulforhodamine B assay relative to control; settings: read-out: Activity
[22] = test system: UACC-257; test: Growth inhibition of human UACC257 cells assessed as cell growth at 1 uM incubated for 48 hrs by sulforhodamine B assay relative to control; settings: UACC-257, 48 h, read-out: Activity
[23] = test system: UACC-62; test: Growth inhibition of human UACC62 cells assessed as cell growth at 10 uM incubated for 48 hrs by sulforhodamine B assay relative to control; settings: UACC-62, 48 h, read-out: Activity
[24] = test system: SR; test: Growth inhibition of human SR cells assessed as cell growth at 100 uM incubated for 48 hrs by sulforhodamine B assay relative to control; settings: read-out: Activity
[25] = test system: RXF 393; test: Growth inhibition of human RXF393 cells assessed as cell growth at 0.01 uM incubated for 48 hrs by sulforhodamine B assay relative to control; settings: RXF 393, 48 h, read-out: Activity
[26] = test system: SW-620; test: Growth inhibition of human SW620 cells assessed as cell growth at 0.1 uM incubated for 48 hrs by sulforhodamine B assay relative to control; settings: SW-620, 48 h, read-out: Activity
[27] = test system: SF-268; test: Growth inhibition of human SF268 cells assessed as cell growth at 0.01 uM incubated for 48 hrs by sulforhodamine B assay relative to control; settings: SF-268, 48 h, read-out: Activity
[28] = test system: COLO 205; test: Growth inhibition of human COLO205 cells assessed as cell growth at 10 uM incubated for 48 hrs by sulforhodamine B assay relative to control; settings: COLO 205, 48 h, read-out: Activity
[29] = test system: DU-145; test: Growth inhibition of human DU145 cells assessed as cell growth at 1 uM incubated for 48 hrs by sulforhodamine B assay relative to control; settings: DU-145, 48 h, read-out: Activity
[30] = test system: ACHN; test: Growth inhibition of human ACHN cells assessed as cell growth at 1 uM incubated for 48 hrs by sulforhodamine B assay relative to control; settings: read-out: Activity
[31] = test system: A498; test: Growth inhibition of human A498 cells assessed as cell growth at 0.1 uM incubated for 48 hrs by sulforhodamine B assay relative to control; settings: A498, 48 h, read-out: Activity
[32] = test system: 786-0; test: Growth inhibition of human 786-0 cells assessed as cell growth at 100 uM incubated for 48 hrs by sulforhodamine B assay relative to control; settings: 786-0, 48 h, read-out: Activity
[33] = test system: MDA-MB-435; test: Growth inhibition of human MDA-MB-435 cells assessed as cell growth at 1 uM incubated for 48 hrs by sulforhodamine B assay relative to control; settings: MDA-MB-435, 48 h, read-out: Activity
[34] = test system: HOP-62; test: Growth inhibition of human HOP62 cells assessed as cell growth at 0.1 uM incubated for 48 hrs by sulforhodamine B assay relative to control; settings: HOP-62, 48 h, read-out: Activity
[35] = test system: HT-29; test: Growth inhibition of human HT-29 cells assessed as cell growth at 100 uM incubated for 48 hrs by sulforhodamine B assay relative to control; settings: HT-29, 48 h, read-out: Activity

SMILES	growth at 0.03 µM [1] [%]	growth at 30 µM [2] [%]	growth at 0.03 µM [3] [%]	growth at 0.003 µM [4] [%]	growth at 0.003 µM [5] [%]	growth at 30 µM [6] [%]	growth at 3 µM [7] [%]	growth at 0.003 µM [8] [%]	growth at 30 µM [9] [%]	growth at 30 µM [10] [%]	growth at 3 µM [11] [%]	growth at 0.03 µM [12] [%]	growth at 30 µM [13] [%]	growth at 3 µM [14] [%]	growth at 3 µM [15] [%]	growth at 0.03 µM [16] [%]	growth at 0.003 µM [17] [%]	growth at 0.3 µM [18] [%]	growth at 30 µM [19] [%]	growth at 0.01 µM [20] [%]	other results
COc1cc2cc(Oc3ccc(NC(=O)Nc4ccc(Cl)c(C(F)(F)F)c4)cc3)c(C)nc2cc1OC	96	-70	92	83	95	-43	18	95	-79	-39	9	98	-71	39	17	94	94	94	-92	–	–
COc1cc2cc(Oc3ccc(NC(=O)Nc4ccc(Cl)c(Cl)c4)cc3)c(C)nc2cc1OC	–	–	–	–	–	–	–	–	–	–	–	–	–	–	–	–	–	–	–	96	growth at 0.1 µM [21]: 93%; growth at 1 µM [22]: 92%; growth at 10 µM [23]: 25%; growth at 100 µM [24]: -48%; growth at 0.01 µM [25]: 106%; growth at 0.1 µM [26]: 101%; growth at 0.01 µM [27]: 103%; growth at 10 µM [28]: -25%; growth at 1 µM [29]: 102%; growth at 1 µM [30]: 91%; growth at 0.1 µM [31]: 86%; growth at 100 µM [32]: -66%; growth at 1 µM [33]: 85%; growth at 0.1 µM [34]: 104%; growth at 100 µM [35]: -100%
COc1cc2cc(Oc3ccc(NC(=O)Nc4cc(C(F)(F)F)cc(C(F)(F)F)c4)cc3)c(C)nc2cc1OC	–	–	–	–	–	–	–	–	–	–	–	–	–	–	–	–	–	–	–	101	growth at 0.1 µM [21]: 89%; growth at 1 µM [22]: 107%; growth at 10 µM [23]: -74%; growth at 100 µM [24]: -19%; growth at 0.01 µM [25]: 100%; growth at 0.1 µM [26]: 100%; growth at 0.01 µM [27]: 97%; growth at 10 µM [28]: -74%; growth at 1 µM [29]: 82%; growth at 1 µM [30]: 17%; growth at 0.1 µM [31]: 93%; growth at 100 µM [32]: -83%; growth at 1 µM [33]: 84%; growth at 0.1 µM [34]: 94%; growth at 100 µM [35]: -90%
Cc1nc2cc(O)c(O)cc2cc1Oc1ccc(NC(=O)Nc2ccc(Cl)c(Cl)c2)cc1	111	-51	115	93	104	-20	86	100	-20	3	71	103	-31	95	103	97	102	97	16	–	–
